Values quoted from earlier work in patent US20210346426A1, “COMPOSITION AND METHOD FOR THE TREATMENT OF COVID-19” (priority 2020, published 2021).

Key:
[1] = after oral administration
[2] = test system: blood coagulation; settings: intravenous injection
[3] = test system: blood coagulation
[4] = even at high concentration

Row | SMILES | excreted unchanged in urine [1] | oxidation of the citrate ion [1] | coagulation times of the blood [2] | effect on blood coagulation in vitro [3] | Acidity (pKa) pKa2 | effect in contact with skin [4]
1 | O=C(O)CC(O)(CC(=O)O)C(=O)O [citrate ion] | less than 1% | rapidly and almost completely oxidized | shortens | acts as an anticoagulant |  | 
2 | O=C(O)CC(O)(CC(=O)O)C(=O)O [Citric acid, 2-Hydroxypropane-1,2,3-tricarboxylic acid] |  |  |  |  | pKa2 = 4.76 | not injurious
3 | O=C([O-])CC(O)(CC(=O)[O-])C(=O)[O-].[Na+].[Na+].[Na+] [sodium citrate, Sodium Citrate] |  |  |  | prevents the blood from coagulation |  | 
